pEC50: −log10 of the molar value.
Assays:
Format in all cases: functional
Cavia porcellus [1] = species: Cavia porcellus; test: Tested for the ability to inhibit spontaneous tone in guinea pig trachealis by 50%, activity expresses as negative logarithm of molar concentration
Rattus norvegicus [2] = species: Rattus norvegicus; test: Tested for relaxation of rat aorta smooth muscle precontracted with 30 mM KCI by 50%, activity expresses as negative logarithm of molar concentration
Cavia porcellus [3] = species: Cavia porcellus; test: Tested for relaxation of guinea pig trachealis smooth muscle
Rattus norvegicus [4] = species: Rattus norvegicus; test: Tested for relaxation of rat aorta smooth muscle

| Compound | pEC50 (Cavia porcellus [1]) | pEC50 (Rattus norvegicus [2]) | IA (Cavia porcellus [3]) | IA (Rattus norvegicus [4]) |
| --- | --- | --- | --- | --- |
| CCN(CC)/C(=N\C#N)C1=CC(C)(C)Oc2ccc([N+](=O)[O-])cc21 | < 4.50 | < 4.50 | – | – |
| CC1(C)Oc2ccc(C#N)cc2[C@H](N2CCCC2=O)[C@H]1O (single isomer, unassigned) [(-)-CROMAKALIM] | – | – | 85.1% | 74.7% |
| CC(N/C(=N\C#N)Nc1ccncc1)C(C)(C)C (configuration not stated) [PINACIDIL ANHYDROUS] | – | – | 97.3% | 91.9% |
| CCN(C)/C(=N\C#N)C1=CC(C)(C)Oc2ccc([N+](=O)[O-])cc21 | 6.75 | < 4.50 | 77.9% | – |
| CC/N=C(/NC#N)C1=CC(C)(C)Oc2ccc([N+](=O)[O-])cc21 | 6.77 | 7.05 | 85.3% | 75.1% |
| C/N=C(/NC#N)C1=CC(C)(C)Oc2ccc(C#N)cc21 | 6.19 | – | 86% | 73% |
| C/N=C(/NC#N)C1=CC(C)(C)Oc2ccc([N+](=O)[O-])cc21 | 7.63 | 7.82 | 86.5% | 79.9% |
| CN(C)/C(=N\C#N)C1=CC(C)(C)Oc2ccc([N+](=O)[O-])cc21 | – | < 4.50 | 90.6% | – |

— ChEMBL document CHEMBL1152008, “N,N-disubstituted benzopyran-4-(N-cyano)carboxamidines, cromakalim analogs with selective activity for guinea pig trachealis” (Bioorg Med Chem Lett, 1993)
